{"source": "paper PMC11597207", "about": "“Synthesis and Anti-Inflammatory and Analgesic Potentials of Ethyl 2-(2,5-Dioxo-1-Phenylpyrrolidin-3-yl)-2-Methylpropanoate” (Pharmaceuticals, 2024)", "molecular_target": "T1, COX-1 (Ovis aries, UniProt P05979)", "T1 construct": "purchased Cayman Chemical Batch No.: A4570", "T1 sequence (P05979 25-600)": "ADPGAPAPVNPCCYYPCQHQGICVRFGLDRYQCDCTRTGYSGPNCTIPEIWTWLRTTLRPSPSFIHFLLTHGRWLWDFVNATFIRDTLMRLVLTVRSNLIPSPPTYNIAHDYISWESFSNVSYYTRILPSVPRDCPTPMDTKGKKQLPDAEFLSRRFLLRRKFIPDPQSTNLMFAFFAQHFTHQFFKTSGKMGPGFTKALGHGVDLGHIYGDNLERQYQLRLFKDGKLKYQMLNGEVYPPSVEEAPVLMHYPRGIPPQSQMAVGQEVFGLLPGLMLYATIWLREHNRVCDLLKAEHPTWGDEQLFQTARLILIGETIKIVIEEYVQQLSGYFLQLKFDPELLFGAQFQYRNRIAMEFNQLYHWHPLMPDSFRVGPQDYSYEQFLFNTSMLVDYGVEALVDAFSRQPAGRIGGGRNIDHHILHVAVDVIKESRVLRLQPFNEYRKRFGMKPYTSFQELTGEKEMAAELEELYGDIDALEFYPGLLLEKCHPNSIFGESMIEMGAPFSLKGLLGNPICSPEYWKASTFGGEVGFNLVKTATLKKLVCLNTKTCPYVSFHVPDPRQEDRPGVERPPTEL", "test": "COX-1 inhibitory assay", "assay_type": "biochemical, sheep", "procedure": "The inhibitory potential of synthesized MAK01 was evaluated using a COX-1 inhibitory assay. This utilized a solution of COX-1 enzymes derived from sheep, adhering to previous protocols. The COX-1 enzyme solution was prepared with a specific concentration. The concentration was set at 0.7–0.8 μg per 10 μL. The activation of the enzymes was achieved by taking and mixing 10 μL and 50 μL of the […] enzyme solution and a co-factor solution, respectively. This mixture was then cooled at 4 °C in an ice bucket for a duration of five to six minutes. As for the preparation of the co-factor solution, it began with 0.1 M Tris buffer, which was maintained at a pH of 8.0. To this buffer, 1 mM of hematin was added. Next, 0.9 mM of glutathione was mixed into the solution. Further, the solution was enriched with 0.24 mM of TMPD. After the co-factor solution, specific test samples were prepared. These samples were of a certain concentration and diluted to 20 μL in volume. These test samples were then mixed with 60 μL of the […] enzyme solution. Once the mixture was prepared, it was left undisturbed at room temperature. The duration for this standing period ranged from five to ten minutes. Subsequent to this resting period, 20 μL of 30 mM arachidonic acid was added. This addition served to initiate the reaction within the solution. Post initiation of the reaction, the solution underwent an incubation period. The solution was kept at a temperature of 37 °C. The incubation was allowed to continue for a total of 15 min. The final solution underwent an absorbance measurement. This was performed using a UV–visible spectrophotometer. Specifically, the measurement was made at a 570 nm wavelength. Similarly, the test samples in various concentrations were processed and analyzed using the same procedure. Using the absorbance value over time, the inhibition of the COX-1 enzyme was quantified.\nUsing the following formulation, the percent inhibition for each sample was calculated. % Inhibition=Abs. test sample−Abs. background/Abs. solvent blank−Abs. background×100", "data": [{"smiles": "CCOC(=O)C(C)(C)C1CC(=O)N(c2ccccc2)C1=O", "note": "(centres unmarked) [MAK01, ethyl 2-(2,5-dioxo-1-phenylpyrrolidin-3-yl)-2-methylpropanoate]", "values": [{"measurement": "IC50", "result": 1090, "unit": "µM"}, {"measurement": "COX-1 percent inhibition", "setting": "62.50 μg/mL", "result": 32, "unit": "%"}, {"measurement": "inhibition at 62.5 µg/mL", "setting": "62.50 μg/mL, read-out: COX-1 percent inhibition", "result": 31.5, "unit": "%"}, {"measurement": "COX-1 percent inhibition", "setting": "125 μg/mL", "result": 38, "unit": "%"}, {"measurement": "inhibition at 125 µg/mL", "setting": "125 μg/mL, read-out: COX-1 percent inhibition", "result": 37.5, "unit": "%"}, {"measurement": "COX-1 percent inhibition", "setting": "250 μg/mL", "result": 46, "unit": "%"}, {"measurement": "inhibition at 250 µg/mL", "setting": "250 μg/mL, read-out: COX-1 percent inhibition", "result": 45.8, "unit": "%"}, {"measurement": "COX-1 percent inhibition", "setting": "500 μg/mL", "result": 56, "unit": "%"}, {"measurement": "inhibition at 500 µg/mL", "setting": "500 μg/mL, read-out: COX-1 percent inhibition", "result": 56.5, "unit": "%"}, {"measurement": "COX-1 percent inhibition", "setting": "1000 μg/mL", "result": 65, "unit": "%"}, {"measurement": "inhibition at 1000 µg/mL", "setting": "1000 μg/mL, read-out: COX-1 percent inhibition", "result": 64.8, "unit": "%"}]}]}
